Where two headings read alike, the source gives them in different places.
Columns and labels:
Assay type in all cases: in vivo
[1] = test system: Alopecurus myosuroides (ALOMY); experiment: Post-emergence herbicidal action against ALOMY; conditions: visual rating about 3 weeks after treatment vs untreated controls (100% = plants have died, 0% = like control plants)
In short: (§1)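 Post-emergence greenhouse spray, one-leaf stage, 600 l/ha water plus 0.5% additive; WP or EC formulations; application rates 320 g/ha or lower. Visual % damage vs untreated controls at ~3 weeks.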

[2] = test system: Amaranthus retroflexus (AMARE); experiment: Post-emergence herbicidal action against AMARE
In short: as §1

Avena fatua (AVEFA) = experiment: Post-emergence herbicidal action against AVEFA; conditions: visual rating about 3 weeks after treatment
In short: as §1

[3] = test system: Digitaria sanguinalis (DIGSA); experiment: Post-emergence herbicidal action against DIGSA; conditions: visual rating about 3 weeks after treatment
Procedure: Seeds of monocotyledonous and dicotyledonous weeds and crop plants are placed in sandy loam in plastic or organic planting pots, covered with soil and cultivated in a greenhouse under controlled growth conditions. 2 to 3 weeks after sowing, the test plants are treated at the one-leaf stage. The compounds of the invention, formulated in the form of wettable powders (WP) or as emulsion concentrates (EC), are then sprayed onto the green parts of the plants as aqueous suspension or emulsion with addition of 0.5% additive at a water application rate of 600 l/ha (converted). After the test plants have been kept in the greenhouse under optimum growth conditions for about 3 weeks, the activity of the preparations is rated visually in comparison to untreated controls. For example, 100% activity=the plants have died, 0% activity=like control plants.
Tables B1 to B13 below show the effects of selected compounds of the general formula (I) according to Table 1 on various harmful plants and at an application rate corresponding to 320 g/ha or lower, which were obtained by the experimental procedure mentioned above. The appendices “a”, “b” and “c” give differentiation by dosage used with otherwise the same harmful plants tested.

[4] = test system: Echinochloa crus-galli (ECHCG); experiment: Post-emergence herbicidal action against ECHCG
In short: as §1

Lolium rigidum (LOLRI) = experiment: Post-emergence herbicidal action against LOLRI
In short: as §1

[5] = test system: Matricaria inodora (MATIN); experiment: Post-emergence herbicidal action against MATIN
In short: as §1

[6] = test system: Pharbitis purpurea (PHBPU); experiment: Post-emergence herbicidal action against PHBPU
In short: as §1

[7] = test system: Polygonum convolvulus (POLCO); experiment: Post-emergence herbicidal action against POLCO
In short: as §1

Setaria viridis (SETVI) = experiment: Post-emergence herbicidal action against SETVI
In short: as §1

[8] = test system: Verconica persica (VERPE); experiment: Post-emergence herbicidal action against VERPE
In short: as §1

Viola tricolor (VIOTR) = experiment: Post-emergence herbicidal action against VIOTR
In short: as §1

Oryza sativa (ORYSA) = conditions: crop plant compatibility
In short: (§2)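 Visual rating (% effect vs. untreated plants; 100% = plant death) made about 3 weeks after treatment. Plants had been sprayed at one-leaf stage, 2–3 weeks post-sowing, with aqueous WP/EC preparations containing 0.5% additive, 600 l/ha water volume; a, b, c mark dose levels.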

Zea mays (ZEAMX) = conditions: for Post-emergence action against ZEAMX in % (crop plant compatibility): 20 g/ha, effect in comparison to untreated controls; for Post-emergence action against ZEAMX in %: crop plant compatibility, effect vs untreated controls
In short: as §2

[9] = test system: Abutilon theophrasti (ABUTH); experiment: Post-emergence herbicidal action against ABUTH; conditions: visual rating about 3 weeks after treatment vs untreated controls (100% = plants have died, 0% = like control plants)
In short: as §1

[10] = 80 g/ha, visual rating about 3 weeks after treatment vs untreated controls (100% = plants have died, 0% = like control plants)
[11] = 320 g/ha, visual rating about 3 weeks after treatment
[12] = 20 g/ha, effect vs untreated controls
[13] = 80 g/ha, effect in comparison to untreated controls

Post-emergence action against ORYSA in % (Oryza sativa (ORYSA); [12])	Post-emergence action against ZEAMX in % (crop plant compatibility) (Zea mays (ZEAMX))	Post-emergence action against ZEAMX in % (Zea mays (ZEAMX); 80 g/ha)	Compound	Post-emergence action against ALOMY in % ([1]; 320 g/ha)	Post-emergence action against AVEFA in % (Avena fatua (AVEFA); 320 g/ha)	Post-emergence action against DIGSA in % ([3]; 80 g/ha)	Post-emergence action against DIGSA in % ([3]; 320 g/ha)	Post-emergence action against ECHCG in % ([4]; dosage 80 g/ha)	Post-emergence action against ECHCG in % ([4]; dosage 320 g/ha)	Post-emergence action against LOLRI in % (Lolium rigidum (LOLRI); dosage 320 g/ha)	Post-emergence action against PHBPU in % ([6]; dosage 320 g/ha)	Post-emergence action against POLCO in % ([7]; dosage 80 g/ha)	Post-emergence action against POLCO in % ([7]; dosage 320 g/ha)	Post-emergence action against SETVI in % (Setaria viridis (SETVI); dosage 80 g/ha)	Post-emergence action against SETVI in % (Setaria viridis (SETVI); dosage 320 g/ha)	Post-emergence action against VERPE in % ([8]; 320 g/ha, VERPE)	Post-emergence action against VERPE in % ([8]; dosage 80 g/ha)	Post-emergence action against VIOTR in % (Viola tricolor (VIOTR); 80 g/ha)	Post-emergence action against VIOTR in % (Viola tricolor (VIOTR); 320 g/ha)	Post-emergence action against AVEFA in % (Avena fatua (AVEFA); 80 g/ha)	other results
10%			CCOC(=O)COc1nn(-c2ncccc2F)c(-c2cncc(F)c2)c1C(F)(F)F [Example I-141]	90%	80%	90%	90%	80%	80%	90%	90%	80%	80%	90%	90%	90%	90%	80%	80%		Post-emergence action against AMARE in % [2, 10]: 80%; Post-emergence action against AMARE in % [2, 11]: 90%; Post-emergence action against MATIN in % ([5]; dosage 80 g/ha): 80%; Post-emergence action against MATIN in % ([5]; dosage 320 g/ha): 90%; Post-emergence action against PHBPU in % ([6]; dosage 80 g/ha): 80%
10%	0%	10%	COC(=O)C(C)OC(=O)C(C)Oc1nn(-c2ccccn2)c(-c2ccc(F)nc2)c1Cl (centres unmarked) [Example I-299]	90%	80%	80%	90%	80%	90%	80%	90%		80%		90%	80%	80%	80%	90%	80%	Post-emergence action against ALOMY in % ([1]; 80 g/ha): 80%; Post-emergence action against AMARE in % [2, 11]: 80%; Post-emergence action against LOLRI in % (Lolium rigidum (LOLRI); dosage 80 g/ha): 80%; Post-emergence action against ORYSA in % (Oryza sativa (ORYSA); [13]): 20%
0%	0%	0%	CC(C)OC(=O)COc1nn(-c2ncccc2F)c(-c2ccc(F)nc2)c1C1CC1 [Example I-328]	90%	90%	90%	90%	90%	90%	90%	90%	90%	90%	90%	90%	90%	90%	80%	90%	90%	Post-emergence action against ABUTH in % ([9]; 80 g/ha): 80%; Post-emergence action against ABUTH in % ([9]; 320 g/ha): 80%; Post-emergence action against ALOMY in % ([1]; 80 g/ha): 90%; Post-emergence action against AMARE in % [2, 10]: 90%; Post-emergence action against AMARE in % [2, 11]: 90%; Post-emergence action against LOLRI in % (Lolium rigidum (LOLRI); dosage 80 g/ha): 90%; Post-emergence action against PHBPU in % ([6]; dosage 80 g/ha): 90%
0%	0%	0%	CCOC(=O)[C@@H](C)Oc1nn(-c2ncccc2F)c(-c2ccnc(F)c2)c1Br [Example I-133]	90%	80%		80%		90%	90%	80%	80%	80%		80%	80%	80%	80%	90%		Post-emergence action against ABUTH in % ([9]; 320 g/ha): 80%; Post-emergence action against ORYSA in % (Oryza sativa (ORYSA); [13]): 10%; Post-emergence action against ZEAMX in % (Zea mays (ZEAMX); 320 g/ha): 20%
0%	0%	20%	COC(=O)C(C)COC(=O)COc1nn(-c2ncccc2F)c(-c2ccc(F)nc2)c1C1CC1 (centres unmarked) [Example I-382]	90%	90%	80%	90%	80%	90%	90%	80%		80%	90%	90%	80%	80%	80%	90%	90%	Post-emergence action against PHBPU in % ([6]; dosage 80 g/ha): 80%; Post-emergence action against ORYSA in % (Oryza sativa (ORYSA); [13]): 10%
	0%	20%	COC(=O)C(C)COC(=O)[C@@H](C)Oc1nn(-c2ccccn2)c(-c2ccc(F)nc2)c1Cl (some centres unmarked) [Example I-267]	90%	90%		90%		90%	100%	90%	80%	80%	90%	90%	90%	90%	90%	90%	90%	Post-emergence action against ABUTH in % ([9]; 80 g/ha): 80%; Post-emergence action against ABUTH in % ([9]; 320 g/ha): 90%; Post-emergence action against AMARE in % [2, 10]: 80%; Post-emergence action against AMARE in % [2, 11]: 80%; Post-emergence action against LOLRI in % (Lolium rigidum (LOLRI); dosage 80 g/ha): 90%
10%			C[C@@H](Oc1nn(-c2ccccn2)c(-c2ccc(F)nc2)c1Br)C(=O)O [Example I-260]	90%	80%	90%	90%		90%	80%	80%	80%	80%		90%	80%				80%	Post-emergence action against ABUTH in % ([9]; 320 g/ha): 80%; Post-emergence action against ORYSA in % (Oryza sativa (ORYSA); [13]): 10%
0%	10%	20%	O=C(COc1nn(-c2ncccc2F)c(-c2ccc(F)nc2)c1C1CC1)OCC1COC1 [Example I-264]	90%	90%	80%	80%	90%	90%	90%	80%			90%	90%	90%	80%	90%	90%	80%	Post-emergence action against LOLRI in % (Lolium rigidum (LOLRI); dosage 80 g/ha): 90%; Post-emergence action against MATIN in % ([5]; dosage 320 g/ha): 80%; Post-emergence action against PHBPU in % ([6]; dosage 80 g/ha): 80%; Post-emergence action against ORYSA in % (Oryza sativa (ORYSA); [13]): 10%
